Like-named read-outs stand apart in the source and are kept apart here.
Experiments:
HT-29 cells = test: Induction of apoptosis, HT-29; assay type: cell-based, human
Experimental: (§1) The ability of DJ 1-31, DJ 1-29, S-NTBA and Compound V to induce apoptosis in different prostate cancer cell lines (DU 145, PC-3, TSU, PPC-1 and LNCaP), in other cancer cell lines (TCCSUP, HT-29 and MCF-7) and in a control cell line (CV-1) was determined and the results are shown in Table 6.

PPC-1 cells = test: Induction of apoptosis, PPC-1; assay type: cell-based, human
Experimental: as §1

[1] = test system: PC-3 bone metastatic prostate cancer cell line; test: Cytotoxicity, SRB assay, PC-3; assay type: cell-based, human; details: Homo sapiens
Experimental: PPC-1, LNCaP, TSU, PC-3, and DU145 were grown in PRMI-1640 medium containing 2 mM L-glutamine supplemented with 10% fetal bovine serum (FBS). Cells were maintained in a 5% CO2/95% air humidified atomosphere at 37° C.
(§2) The SRB Assay was used to determine cell number during cytotoxocity experiments. The following protocol was used: • 1. Cells were detached with 0.25% trypsin. • 2. Experimental cultures were cultured in 96-well microtiter plates (200 uL growth medium per well; 1,000-200,000 cells per well). • 3. Cultures were fixed with 50 uL 50% TCA (4° C.). (see cell fixation protocol for details). • 4. Fixed cells were stained with 50 uL 0.4% (wt/vol) SRB in 1% acetic acid for 10 minutes. • 5. SRB was removed and the cultures were quickly* rinsed 5 times with 1% acetic acid to remove unbound dye.** • 6. Cultures were air-dried overnight until there is no visible moisture. • 7. The cellular protein-bound SRB was dissolved with 200 uL unbuffered Tris base (10 mM, pH 10.5) for 30 minutes on a rocking platform shaker. • 8. Absorbance was read at 540 nm. • * quickly performing rinsing process is to prevent desorption of protein-bound SRB • ** completely remove residual wash solution by sharply flicking plates over sink. Fixation of Cells Attached to the Plastic Substratum
(§3) The following protocol was used for fixing cells: • a. 50 uL of 50% TCA (4° C.) were gently layered on the top of growth medium in each well to make a final TCA concentration of 10%. • b. Cultures were incubated at 4° C. for 1 hour. • c. Cultures were washed 5 times with tap water to remove TCA, growth medium, low-molecular-weight metabolites, and serum protein. • d. Plates were air-dried until there was no visible moisture.

[2] = test system: AR-expressing LNCaP prostate cancer cell line; test: Cytotoxicity, SRB assay, LNCaP; assay type: cell-based, human; details: Homo sapiens, LNCaP
Experimental: as §2, with “Cells were detached with 0.25% trypsin. • 2.” left out, “The cellular protein-bound SRB was dissolved with 200 uL unbuffered Tris base (10 mM, pH 10.5) for 30 minutes on a rocking platform shaker. • 8.” left out
as §3

[3] = test system: DU 145 prostate cancer cell line; test: Cytotoxicity, SRB assay, DU 145; assay type: cell-based, human; details: Homo sapiens
Experimental: as §2, with “Cells were detached with 0.25% trypsin. • 2.” left out, “The cellular protein-bound SRB was dissolved with 200 uL unbuffered Tris base (10 mM, pH 10.5) for 30 minutes on a rocking platform shaker. • 8.” left out
as §3

[4] = test system: PPC-1 prostate cancer cell line; test: Cytotoxicity, SRB assay, PPC-1; assay type: cell-based, human; details: Homo sapiens
Experimental: as §2, with “Cells were detached with 0.25% trypsin. • 2.” left out, “The cellular protein-bound SRB was dissolved with 200 uL unbuffered Tris base (10 mM, pH 10.5) for 30 minutes on a rocking platform shaker. • 8.” left out
as §3

CV-1 cells = test: Induction of apoptosis, CV-1; assay type: cell-based, African green monkey
Experimental: as §1

[5] = test system: TCCSUP bladder cancer cell line; test: Cytotoxicity, SRB assay, TCCSUP; assay type: cell-based, human; details: Homo sapiens, TCC-SUP, read-out: IC50 TCCSUP
Experimental: as §2, with “Cells were detached with 0.25% trypsin. • 2.” left out, “The cellular protein-bound SRB was dissolved with 200 uL unbuffered Tris base (10 mM, pH 10.5) for 30 minutes on a rocking platform shaker. • 8.” left out
as §3

[6] = test system: HT-29 colorectal adenocarcinoma cell line; test: Cytotoxicity, SRB assay, HT-29; assay type: cell-based, human; details: Homo sapiens
Experimental: as §2, with “Cells were detached with 0.25% trypsin. • 2.” left out, “The cellular protein-bound SRB was dissolved with 200 uL unbuffered Tris base (10 mM, pH 10.5) for 30 minutes on a rocking platform shaker. • 8.” left out
as §3

TSU cells = test: Induction of apoptosis, TSU; assay type: cell-based, human
Experimental: as §1

DU 145 cells = test: Induction of apoptosis, DU 145; assay type: cell-based, human
Experimental: as §1

TCCSUP cells = test: Induction of apoptosis, TCCSUP; assay type: cell-based, human
Experimental: as §1

MCF-7 cells = test: Induction of apoptosis, MCF-7; assay type: cell-based
Experimental: as §1

LNCaP cells = test: Induction of apoptosis, LNCaP; assay type: cell-based, human
Experimental: as §1

[7] = test system: TSU prostate cancer cell line; test: Cytotoxicity, SRB assay, TSU; assay type: cell-based, human; details: Homo sapiens, read-out: IC50 TSU
Experimental: as §2, with “Cells were detached with 0.25% trypsin. • 2.” left out, “The cellular protein-bound SRB was dissolved with 200 uL unbuffered Tris base (10 mM, pH 10.5) for 30 minutes on a rocking platform shaker. • 8.” left out
as §3

CV-1 control cell line = test: Cytotoxicity, SRB assay, CV-1 control; assay type: cell-based, African green monkey; details: Chlorocebus sabaeus
Experimental: as §2, §3

PC-3 cells = test: Induction of apoptosis, PC-3; assay type: cell-based, human
Experimental: as §1

[8] = test system: MCF-7 breast adenocarcinoma cell line; test: Cytotoxicity, SRB assay, MCF-7; assay type: cell-based; details: Homo sapiens, Example 4
Experimental: as §2, §3

[9] = 24 h, read-out: IC50 LNCaP 24 hr treatment
[10] = 144 h, read-out: IC50 LNCaP 6 day treatment

C[C@@](O)(CBr)C(=O)Nc1ccc([N+](=O)[O-])c(C(F)(F)F)c1 [S-NTBA]
Enrichment factor HT-29 (HT-29 cells): 1.538
Enrichment factor PPC-1 (PPC-1 cells): 0.697
IC50 ([1]; 96 h, 4 day treatment, Example 3, read-out: IC50 PC-3 4 day treatment): 18 µM
IC50 ([1]; 24 hr treatment, Example 3, read-out: IC50 PC-3 24 hr treatment): > 50 µM
IC50 ([1]; Table 2A, Example 1, read-out: IC50 PC-3): 3.1 ± 0.6 µM
IC50 [2, 9]: 4.4 µM
IC50 [2, 10]: 2.1 µM
IC50 ([2]; read-out: IC50 LNCaP): 1.4 ± 0.2 µM
IC50 ([3]; DU-145, Table 2A, Example 1, read-out: IC50 DU145): 4700 ± 300 nM
IC50 ([4]; PPC-1, Table 2A, Example 1, read-out: IC50 PPC-1): 2200 ± 200 nM
Enrichment factor CV-1 (CV-1 cells): 0.393
IC50 ([5]; Table 2B, Example 1): 2400 ± 300 nM
IC50 ([6]; HT-29, Table 2B, Example 1, read-out: IC50 HT-29): 6.3 ± 0.3 µM
Enrichment factor TSU (TSU cells): 0.705
Enrichment factor DU 145 (DU 145 cells): 1.929
Enrichment factor TCCSUP (TCCSUP cells): 0.118
Enrichment factor MCF-7 (MCF-7 cells): 2.012
Enrichment factor LNCaP (LNCaP cells): 0.660
IC50 ([7]; Table 2A, Example 1): 3500 ± 200 nM
IC50 (CV-1 control cell line; 24 h, drug incubation time 1 day, Example 4, read-out: IC50 CV-1): > 50 µM
IC50 (CV-1 control cell line; 96 h, 4 day treatment, Example 2, read-out: IC50 CV-1 4 day treatment): 4.9 µM
IC50 (CV-1 control cell line; 96 h, drug incubation time 4 day, Example 4, read-out: IC50 CV-1): 38.6 ± 3.6 µM
IC50 (CV-1 control cell line; 24 hr treatment, Example 2, read-out: IC50 CV-1 24 hr treatment): 48.2 ± 10.9 µM
IC50 (CV-1 control cell line; Table 2B, Example 1, read-out: IC50 CV-1 (Control)): 12.7 ± 0.3 µM
Enrichment factor PC-3 (PC-3 cells): 0.750

C[C@](O)(CSc1ccc(NC(=O)CBr)cc1)C(=O)Nc1ccc(C#N)c(C(F)(F)F)c1 [R-CTF-T-BA-1]
IC50 ([1]; 24 h, read-out: IC50 PC-3 24 hr treatment): 22.1 µM
IC50 ([1]; 96 h, read-out: IC50 PC-3 4 day treatment): 16.8 µM
IC50 ([1]; read-out: IC50 PC-3): 2.6 ± 0.1 µM
IC50 [2, 9]: 11.2 µM
IC50 [2, 10]: 8.1 µM
IC50 ([2]; read-out: IC50 LNCaP): 3.2 ± 0.4 µM
IC50 ([3]; DU-145, read-out: IC50 DU145): 3100 ± 100 nM
IC50 ([4]; PPC-1, read-out: IC50 PPC-1): 1300 ± 100 nM
IC50 [5]: 3800 ± 500 nM
IC50 ([6]; HT-29, read-out: IC50 HT-29): 1.6 ± 0.03 µM
IC50 [7]: 600 ± 100 nM
IC50 (CV-1 control cell line; 24 h, read-out: IC50 CV-1 24 hr treatment): 23.4 ± 1.6 µM
IC50 (CV-1 control cell line; 96 h, read-out: IC50 CV-1 4 day treatment): 13.9 µM
IC50 (CV-1 control cell line; read-out: IC50 CV-1 (Control)): 10.8 ± 0.5 µM

C[C@](O)(COc1ccc(NC(=O)CCl)cc1)C(=O)Nc1ccc([N+](=O)[O-])c(C(F)(F)F)c1 [DJ 1-31]
Enrichment factor HT-29 (HT-29 cells): 1.205
Enrichment factor PPC-1 (PPC-1 cells): 1.312
IC50 ([8]; MCF7, 24 h, drug incubation time 1 day): 15.8 ± 2.7 µM
IC50 ([8]; MCF7, 96 h, drug incubation time 4 day): 14 ± 1.1 µM
IC50 ([1]; 24 h, read-out: IC50 PC-3): 5.4 ± 0.8 µM
IC50 ([1]; 96 h, read-out: IC50 PC-3): 5.3 ± 0.8 µM
IC50 ([2]; 24 h, read-out: IC50 LNCaP): 2.9 ± 1.2 µM
IC50 ([2]; 96 h, read-out: IC50 LNCaP): 3.3 ± 0.4 µM
IC50 ([3]; DU-145, 24 h, read-out: IC50 DU 145): 1000 ± 200 nM
IC50 ([3]; DU-145, 96 h, read-out: IC50 DU 145): 700 ± 100 nM
IC50 ([4]; PPC-1, 24 h, read-out: IC50 PPC-1): 1900 ± 100 nM
IC50 ([4]; PPC-1, 96 h, read-out: IC50 PPC-1): 1900 ± 100 nM
Enrichment factor CV-1 (CV-1 cells): 0.702
IC50 ([5]; 24 h): 2100 ± 300 nM
IC50 ([5]; 96 h): 2100 ± 300 nM
IC50 ([6]; HT-29, 24 h, read-out: IC50 HT-29): 5.4 ± 0.1 µM
IC50 ([6]; HT-29, 96 h, read-out: IC50 HT-29): 3.7 ± 0.7 µM
Enrichment factor TSU (TSU cells): 0.848
Enrichment factor DU 145 (DU 145 cells): 2.500
Enrichment factor TCCSUP (TCCSUP cells): 0.471
Enrichment factor MCF-7 (MCF-7 cells): 0.938
Enrichment factor LNCaP (LNCaP cells): 1.374
IC50 ([7]; 24 h): 1300 ± 100 nM
IC50 ([7]; 96 h): 1100 ± 100 nM
IC50 (CV-1 control cell line; 24 h, read-out: IC50 CV-1): 5.8 ± 0.3 µM
IC50 (CV-1 control cell line; 96 h, read-out: IC50 CV-1): 5.3 ± 0.2 µM
Enrichment factor PC-3 (PC-3 cells): 0.594

— patent US20060035966A1, “Irreversible selective androgen receptor modulators and methods of use thereof” (priority 2002, published 2006)
